Calls of active or inactive are those of the source. No cut-off for these calls is given here.
Key:
Homo sapiens = species on record: Homo sapiens; assay: (§1) Inhibition of NF-kappaB (unknown origin) expressed in human L428 cells after 2 hrs by luciferase reporter gene assay; assay type: cell-based
L-428 [1] = assay: Inhibition of NFkappaB RelB subunit expression in nuclear fractions of human L428 cells at 2.5 ug/ml after 2 hrs by Western method; assay type: functional, cell-based
[2] = as §1; assay type: cell-based; details: L-428, 2 h
L-428 [3] = assay: Cytotoxicity against human L428 cells after 24 by XTT assay; assay type: functional, cell-based
L-428 [4] = assay: Inhibition of NFkappaB p50 subunit expression in nuclear fractions of human L428 cells at 2.5 ug/ml after 2 hrs by Western method; assay type: functional, cell-based
L-428 [5] = assay: Inhibition of NFkappaB p50 subunit expression in cytosolic fractions of human L428 cells at 2.5 ug/ml after 2 hrs by Western method; assay type: functional, cell-based
L-428 [6] = assay: Cytotoxicity against human L428 cells after 48 by XTT assay; assay type: functional, cell-based
L-428 [7] = assay: Inhibition of NFkappaB p65 subunit expression in cytosolic fractions of human L428 cells at 2.5 ug/ml after 2 hrs by Western method; assay type: functional, cell-based
L-428 [8] = assay: Inhibition of NFkappaB RelB subunit expression in cytosolic fractions of human L428 cells at 2.5 ug/ml after 2 hrs by Western method; assay type: functional, cell-based
A549 [9] = assay: Anti-migratory activity against human A549 cells assessed as reduction in wound closure at 7.94 uM after 48 hrs by wound-scratch assay; assay type: functional, cell-based
L-428 [10] = assay: Inhibition of NFkappaB p65 subunit expression in nuclear fractions of human L428 cells at 2.5 ug/ml after 2 hrs by Western method; assay type: functional, cell-based
A549 [11] = assay: Anti-migratory activity against human A549 cells assessed as reduction in wound closure at 5.6 uM after 48 hrs by wound-scratch assay; assay type: functional, cell-based
A549 [12] = assay: Anti-migratory activity against human A549 cells assessed as reduction in wound closure at 2.6 uM after 48 hrs by wound-scratch assay; assay type: functional, cell-based

Row | SMILES | inhibition (Homo sapiens) | inhibition (L-428 [1]) | IC50 [2] [µM] | IC50 (L-428 [3]) [µM] | inhibition (L-428 [4]) | inhibition (L-428 [5]) | IC50 (L-428 [6]) [µM] | inhibition (L-428 [7]) | inhibition (L-428 [8]) | inhibition (L-428 [10]) | also measured
1 | CCCC(=O)N[C@H]1CCOC1=O | Dose-dependent effect |  |  |  |  |  |  |  |  |  | 
2 | C#CCCCCCCCCC(=O)CC(=O)N[C@H]1CCOC1=O | Dose-dependent effect |  |  |  |  |  |  |  |  |  | 
3 | O=C1C=C(Br)/C(=C/Br)O1 | Dose-dependent effect | Active | 9.9 | 5.16 | Active | Active | 3.05 | Active | Active | Active | Activity (A549 [9]): Active
4 | O=C(CCCCCCCCCN=C=S)CC(=O)N[C@H]1CCOC1=O | Dose-dependent effect | Active | 4.1 | 13.3 | Active | Active | 12.4 | Active | Active | Active | Activity (A549 [11]): Active
5 | O=C(CCCCCCCC(Cl)CN=C=S)CC(=O)N[C@H]1CCOC1=O (some centres undefined) | Dose-dependent effect | Active | 12.8 | 15.1 | Active | Active | 18.3 | Active | Active | Active | Activity (A549 [12]): Active
6 | CCCCCCCCCCCN=C=S | Dose-dependent effect |  |  |  |  |  |  |  |  |  | 
7 | CCCCCCCc1[nH]c2ccccc2c(=O)c1O | Dose-dependent effect |  |  |  |  |  |  |  |  |  | 
8 | COc1cc(/C=C/C(=O)CC(=O)/C=C/c2ccc(O)c(OC)c2)ccc1O | Active |  |  |  |  |  |  |  |  |  | 
9 | CCCCCCCCCC(=O)CC(=O)N[C@H]1CCOC1=O | Dose-dependent effect |  |  |  |  |  |  |  |  |  | 
